Columns and labels:
[1] = system: rat; conditions: Subchronic dermal toxicity, fischer, Topical, dose end: 13 week, group: systemic
[2] = system: dog; conditions: Chronic toxicity; beagle; Oral; Feed; dose end: 52 week; group: systemic; systemic / hematology / erythrocyte (rbc) count differential / erythrocyte (rbc) + systemic / hematology / heinz body / heinz body + …
[3] = system: rat; conditions: Multigenerational reproductive toxicity study, sprague dawley, Oral, Feed, dose end: 2 generation
[4] = system: rat; conditions: Combined chronic toxicity/carcinogenicity, wistar, Oral, Feed, dose end: 24 month, group: systemic
[5] = system: mouse; conditions: Carcinogenicity; b6c3f1; Oral; Feed; dose end: 2 year; group: systemic; systemic / organ weight / kidney / nos + systemic / pathology microscopic / kidney / vacuolization + systemic / organ weight / kidney / …
[6] = system: rat; conditions: Subchronic oral toxicity in rodents, wistar, Feed, dose end: 90 day, group: systemic
[7] = system: dog; conditions: Subchronic oral toxicity in nonrodent, beagle, Feed, dose end: 90 day, group: systemic
[8] = system: rabbit; conditions: Prenatal developmental toxicity study, other, Oral, Gavage/Intubation, dose end: 18 GD
[9] = system: mouse; conditions: Subchronic oral toxicity in rodents, b6c3f1, Feed, dose end: 14 week, group: systemic, systemic / clinical chemistry / bilirubin / total bilirubin + systemic / clinical chemistry / cholesterol / cholesterol + systemic / …
[10] = system: rat; conditions: Prenatal developmental toxicity study, sprague dawley, Oral, Gavage/Intubation, dose end: 15 GD
[11] = system: rat; conditions: Combined chronic toxicity/carcinogenicity; sprague dawley; Oral; Feed; dose end: 104 week; group: systemic; systemic / pathology microscopic / adrenal gland / hypertrophy + systemic / pathology microscopic / skeletal muscle / malformation + …
[12] = system: rat; conditions: Prenatal developmental toxicity study; wistar; Oral; Feed; dose end: 15 GD; group: maternal; systemic / in life observation / body weight / body weight gain + systemic / in life observation / food consumption / food consumption
[13] = system: mouse; conditions: Subchronic oral toxicity in rodents, b6c3f1, Feed, dose end: 13 week, group: systemic
[14] = system: rat; conditions: Combined chronic toxicity/carcinogenicity, fischer, Oral, Feed, dose end: 2 year, group: systemic
[15] = system: mouse; conditions: Combined chronic toxicity/carcinogenicity; b6c3f1; Oral; Feed; dose end: 2 year; group: systemic; systemic / in life observation / body weight / body weight
[16] = system: rat; conditions: Combined chronic toxicity/carcinogenicity; fischer; Oral; Feed; dose end: 104 week; group: systemic; systemic / organ weight / skeletal muscle / absolute + systemic / organ weight / skeletal muscle / relative to body weight + systemic / …
[17] = system: rat; conditions: Prenatal developmental toxicity study, sprague dawley, Oral, Gavage/Intubation, dose end: 5 GD, group: developmental
[18] = system: rat; conditions: Prenatal developmental toxicity study, sprague dawley, Oral, Gavage/Intubation, dose end: 15 GD; remark: listed apart in the source
[19] = system: mouse; conditions: Carcinogenicity, cd1, Oral, Feed, dose end: 80 week, group: systemic
[20] = system: rat; conditions: Multigenerational reproductive toxicity study, sprague dawley, Oral, Feed, dose end: 2 generation; remark: listed apart in the source
[21] = system: dog; conditions: Chronic toxicity, beagle, Oral, [Not Specified], dose end: 52 week, group: systemic
[22] = system: rat; conditions: Subchronic oral toxicity in rodents, sprague dawley, Feed, dose end: 13 week, group: systemic, systemic / in life observation / body weight / body weight + systemic / in life observation / body weight / body weight gain + systemic / in…
[23] = system: rat; conditions: Subchronic oral toxicity in rodents, fischer, Feed, dose end: 13 week, group: systemic
[24] = systemic / pathology microscopic / skin / inflammation
[25] = systemic / pathology microscopic / skin / inflammation + systemic / in life observation / clinical signs / desquamation + systemic / in life…
[26] = group: offspring, systemic / in life observation / body weight / offspring (pup) weight
[27] = group: offspring, systemic / in life observation / body weight / offspring (pup) weight + developmental / offspring survival late / [other] / [other]
[28] = group: parental, systemic / clinical chemistry / alkaline phosphatase (alp/alk) / alkaline phosphatase (alp/alk) + systemic / clinical chemistry / creatinine…
[29] = systemic / clinical chemistry / lactic acid dehydrogenase (ldh) / lactic acid dehydrogenase (ldh)
[30] = systemic / clinical chemistry / alanine aminotransferase (alt/sgpt) / alanine aminotransferase (alt/sgpt) + systemic / in life observation…
[31] = systemic / organ weight / liver / absolute + systemic / organ weight / liver / relative to body weight
[32] = systemic / hematology / heinz body / heinz body
[33] = systemic / hematology / heinz body / heinz body + systemic / clinical chemistry / alkaline phosphatase (alp/alk) / alkaline phosphatase (alp…
[34] = group: developmental, developmental / developmental malformation / bone / unossified + systemic / in life observation / body weight / fetal weight
[35] = group: maternal, systemic / in life observation / body weight / body weight gain + systemic / in life observation / clinical signs / scybala + systemic / in …
[36] = group: developmental, developmental / developmental malformation / diaphragm / diaphragmatic thinning
[37] = group: developmental, developmental / developmental malformation / diaphragm / diaphragmatic thinning + systemic / in life observation / body weight / fetal …
[38] = group: maternal, systemic / in life observation / body weight / body weight + systemic / in life observation / clinical signs / salivation + systemic / in …
[39] = systemic / in life observation / body weight / body weight gain
[40] = systemic / in life observation / body weight / body weight gain + systemic / in life observation / mortality / mortality + systemic / in …
[41] = systemic / pathology microscopic / eye / retinopathy
[42] = systemic / pathology microscopic / thyroid gland / adenoma/carcinoma combined + systemic / pathology microscopic / thyroid gland / carcinoma…
[43] = developmental / developmental malformation / bone / ossification sites + developmental / developmental malformation / general / [other] + …
[44] = group: developmental, developmental / developmental malformation / bone / ossification sites + developmental / developmental malformation / general / [other] + …
[45] = group: maternal, systemic / in life observation / body weight / body weight gain
[46] = group: maternal, systemic / in life observation / body weight / body weight gain + reproductive / reproductive performance / postimplantation loss / …
[47] = systemic / in life observation / body weight / body weight + systemic / pathology microscopic / liver / hypertrophy
[48] = systemic / in life observation / body weight / body weight gain + systemic / organ weight / brain / absolute + systemic / pathology …
[49] = group: parental, systemic / in life observation / body weight / body weight + systemic / in life observation / body weight / body weight gain + systemic / in…
[50] = systemic / clinical chemistry / alanine aminotransferase (alt/sgpt) / alanine aminotransferase (alt/sgpt) + systemic / clinical chemistry / …
[51] = systemic / organ weight / ovary / absolute + systemic / organ weight / uterus / absolute

With `CCCCCCCCCCSCCN.Cl` [2-(Decylthio)ethanamine hydrochloride] the LOAEL [1, 24] was 1 mg/kg/day, the NOAEL [1, 24] was under 1 mg/kg/day and the LEL [1, 25] was 1 mg/kg/day. The NEL [1, 25] was under 1 mg/kg/day.
`CC1(C(=O)Nc2ccc(O)c(Cl)c2Cl)CCCCC1` [Fenhexamid] showed an LEL [2] of 124 mg/kg/day, an LOAEL [2] of 124 mg/kg/day and an NEL [2] of 17.4 mg/kg/day. It also gave an NOAEL [2] of 17.4 mg/kg/day, an LEL [3, 26] of 406 mg/kg/day and an LOAEL [3, 26] of 406 mg/kg/day. The NEL [3, 27] was 38.2 mg/kg/day, the NOAEL [3, 27] was 38.2 mg/kg/day and the LEL [3, 28] was 406 mg/kg/day. The LOAEL [3, 28] was 406 mg/kg/day, the NEL [3, 28] was 38.2 mg/kg/day and the NOAEL [3, 28] was 38.2 mg/kg/day. The LEL [4, 29] was 28 mg/kg/day, the NEL [4, 29] was under 28 mg/kg/day and the NOAEL ([4]; systemic / clinical chemistry / lactic acid dehydrogenase (ldh) / lactic acid dehydrogenase (ldh) + systemic / pathology microscopic / …) was 28 mg/kg/day. The LOAEL ([4]; systemic / pathology microscopic / intestine large / hyperplasia + systemic / pathology microscopic / spleen / hematopoietic cell …) was 292 mg/kg/day, the LEL [5] was 807 mg/kg/day and the LOAEL [5] was 807 mg/kg/day. It also gave an NEL [5] of 247 mg/kg/day, an NOAEL [5] of 247 mg/kg/day and an LOAEL [6, 30] of 904 mg/kg/day. For the same molecule, the NOAEL [6, 30] was 415 mg/kg/day, the LEL [6, 31] was 202 mg/kg/day and the NEL [6, 31] was under 202 mg/kg/day. It also gave an LEL [7, 32] of 239 mg/kg/day, an LOAEL [7, 32] of 239 mg/kg/day and an NEL [7, 33] of 33.9 mg/kg/day. The NOAEL [7, 33] was 33.9 mg/kg/day, the LEL [8, 34] was 1000 mg/kg/day and the LOAEL [8, 34] was 1000 mg/kg/day. It also gave an NEL [8, 34] of 300 mg/kg/day, an NOAEL [8, 34] of 300 mg/kg/day and an LEL [8, 35] of 300 mg/kg/day. For the same molecule, the LOAEL [8, 35] was 300 mg/kg/day, the NEL [8, 35] was 100 mg/kg/day and the NOAEL [8, 35] was 100 mg/kg/day. It also gave an LEL [9] of 3280 mg/kg/day, an LOAEL [9] of 3280 mg/kg/day and an NEL [9] of 266 mg/kg/day. For the same molecule, the NOAEL [9] was 266 mg/kg/day.
Molecule `CN(C)C(=S)[S-].CN(C)C(=S)[S-].[Zn+2]` [Ziram] has an LEL [10, 36] of 16 mg/kg/day, an LOAEL [10, 36] of 16 mg/kg/day and an NEL [10, 37] of 4 mg/kg/day. The NOAEL [10, 37] was 4 mg/kg/day, the LEL [10, 38] was 16 mg/kg/day and the LOAEL [10, 38] was 16 mg/kg/day. For the same molecule, the NEL [10, 38] was 4 mg/kg/day, the NOAEL [10, 38] was 4 mg/kg/day and the LEL [11] was 2.5 mg/kg/day. It also gave an LOAEL [11] of 2.5 mg/kg/day, an NEL [11] of under 2.5 mg/kg/day and an NOAEL [11] of under 2.5 mg/kg/day. It also gave an LEL [12] of 12.5 mg/kg/day, an LOAEL [12] of over 25 mg/kg/day and an NEL [12] of 6.25 mg/kg/day. It also gave an NOAEL [12] of at least 25 mg/kg/day, an LEL [13, 39] of 80 mg/kg/day and an NEL [13, 39] of under 80 mg/kg/day. For the same molecule, the LOAEL [13, 40] was over 1590 mg/kg/day, the NOAEL [13, 40] was at least 1590 mg/kg/day and the LEL [14, 41] was 13 mg/kg/day. For the same molecule, the NEL [14, 41] was under 13 mg/kg/day, the LOAEL [14, 42] was over 22 mg/kg/day and the NOAEL [14, 42] was at least 22 mg/kg/day. For the same molecule, the LEL [15] was 122 mg/kg/day, the LOAEL [15] was 122 mg/kg/day and the NEL [15] was under 122 mg/kg/day. It also gave an NOAEL [15] of under 122 mg/kg/day, an LEL [16] of 6.9 mg/kg/day and an LOAEL [16] of 6.9 mg/kg/day. It also gave an NEL [16] of 0.7 mg/kg/day, an NOAEL [16] of 0.7 mg/kg/day and an LOAEL [17, 43] of over 100 mg/kg/day. It also gave an NEL [17, 43] of 25 mg/kg/day, an NOAEL [17, 43] of at least 100 mg/kg/day and an LEL ([17]; systemic / in life observation / body weight / fetal weight) of 50 mg/kg/day. The LOAEL [18, 44] was over 100 mg/kg/day, the NEL [18, 44] was 12.5 mg/kg/day and the NOAEL [18, 44] was at least 100 mg/kg/day. It also gave an LEL ([18]; group: developmental, systemic / in life observation / body weight / fetal weight) of 25 mg/kg/day, an LEL [18, 45] of 12.5 mg/kg/day and an NEL [18, 45] of under 12.5 mg/kg/day. It also gave an LOAEL [18, 46] of over 100 mg/kg/day, an NOAEL [18, 46] of at least 100 mg/kg/day and an LEL [19, 47] of 3 mg/kg/day. The NEL [19, 47] was under 3 mg/kg/day, the LOAEL [19, 48] was 27 mg/kg/day and the NOAEL [19, 48] was 9 mg/kg/day. It also gave an LEL [20, 26] of 42.7 mg/kg/day, an LOAEL [20, 26] of 42.7 mg/kg/day and an NEL [20, 26] of 16.7 mg/kg/day. For the same molecule, the NOAEL [20, 26] was 16.7 mg/kg/day, the LEL [20, 49] was 37.5 mg/kg/day and the LOAEL [20, 49] was 37.5 mg/kg/day. It also gave an NEL [20, 49] of 14.8 mg/kg/day, an NOAEL [20, 49] of 14.8 mg/kg/day and an LOAEL [21, 50] of 6.6 mg/kg/day. It also gave an NOAEL [21, 50] of 1.6 mg/kg/day, an LEL [21, 51] of 1.9 mg/kg/day and an NEL [21, 51] of under 1.9 mg/kg/day. For the same molecule, the LEL [22] was 21.4 mg/kg/day, the LOAEL [22] was 21.4 mg/kg/day and the NEL [22] was 7.4 mg/kg/day. The NOAEL [22] was 7.4 mg/kg/day, the LEL [23, 39] was 31.3 mg/kg/day and the LOAEL [23, 40] was over 313 mg/kg/day. It also gave an NEL [23, 40] of 16.3 mg/kg/day and an NOAEL [23, 40] of at least 313 mg/kg/day.

Source: EPA's ToxRefDB 2
